Results: patent publication US6852503B1, “Compositions and methods for utilizing mixed substrate solutions of luminols and dioxetanes” (Pierce Biotechnology, Inc., priority 2001, dated 2005)

Columns and labels:
alkaline phosphatase = alkaline phosphatase (Bos taurus, UniProt P19111); test: Effect of peroxidase enhancers on observed alkaline phosphatase activity in dioxetane formulation containing PBTBQ; format: biochemical; settings: for Response, Percent: 33.3 pg alkaline phosphatase, 30 minutes, net signal relative to control solution (CDP-Star plus Nitroblock II) set to 100%; for enhancement of the observed phosphatase activity: relative to control solution
Sequence of alkaline phosphatase (P19111 20-506 limits assumed): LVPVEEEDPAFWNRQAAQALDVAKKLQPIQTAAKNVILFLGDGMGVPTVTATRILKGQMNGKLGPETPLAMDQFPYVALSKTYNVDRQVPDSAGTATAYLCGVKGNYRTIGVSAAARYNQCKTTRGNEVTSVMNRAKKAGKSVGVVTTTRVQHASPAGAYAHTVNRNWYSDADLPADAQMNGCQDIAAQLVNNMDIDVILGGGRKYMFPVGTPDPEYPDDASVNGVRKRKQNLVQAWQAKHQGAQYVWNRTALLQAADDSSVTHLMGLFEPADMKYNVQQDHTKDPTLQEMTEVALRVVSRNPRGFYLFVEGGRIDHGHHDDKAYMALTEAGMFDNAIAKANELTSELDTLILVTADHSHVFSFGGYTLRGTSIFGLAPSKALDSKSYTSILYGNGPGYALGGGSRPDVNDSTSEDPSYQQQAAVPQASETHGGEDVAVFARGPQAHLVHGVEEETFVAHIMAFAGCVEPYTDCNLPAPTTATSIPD
Description: (§1) A variety of known enhancers of peroxidase activity were tested for their effect on the observed alkaline phosphatase activity in a dioxetane formulation containing the PBTBQ alkaline phosphatase enhancement agent. […] 10 μl of TBS served as a background control. 40 mM stock solutions as ws-PT, ws-PT-N-C4-S-C2Cl, and ws-PT Plus (CP-Br) were prepared in water. A 50 mM solution of DMAP was prepared in water. A 20 mM ws-PT Plus (MPA Cl) was prepared in water. 40 mM solutions of MPT and CPPT were prepared in methanol. (See Table 3 for acronym identification of these peroxidase enhancers, some of which are substantially water-soluble(ws).) The control solution was prepared by mixing 2.85 ml of CDP-Star RTU (Tropix Product No. MS100R) with 0.15 ml of NitroBlock II (Tropix Product No. LNX200). For the test solutions, 112 μl of the peroxidase enhancer stock solutions were added to 3 ml of the control solution in the case of the ws-PT, MPT, ws-PT-NC4S, ws-PT-Plus (CP-Br), or CPPT; for the ws-PT-Plus (MPS-C) 224 μl of the stock was added to 3 ml of the control solution; for the DMAP, 150 μl of the stock was added to 3 ml of the control solution; for the test solution containing DMAP and ws-PT, 150 μl of the DMAP stock and 112 μl of the ws-PT stock was added to 3 ml of the control solution.
To the wells of the microplate containing the alkaline phosphatase aliquots, the control and test formulations were added at 100 μl per well, mixed for approximately one minute, and allowed to react for 30 minutes at which time the chemiluminescent signal was measured on a Berthold EGG Luminometer using a 0.1 second integration time. Table 3 illustrates the relative signal intensities obtained using the response from the control solution set to 100%. The net signal of each solution (background subtracted) was used for these calculations. […] Consequently, the relative response factors for alkaline phosphatase and peroxidase activity to each other in the present invention can be modulated by the choice of the peroxidase enhancer used in the substrate solution formulation of this invention.

[1] = Visual appearance (flocculation) of test solutions; format: physicochemical; settings: enhancer stock added to CDP-Star RTU/NitroBlock II control solution
Description: as §1

## O=C(O)CCCN1c2ccccc2Sc2ccccc21 [CPPT, 4-(phenothiazin-10-yl)butanoic acid]
Alkaline phosphatase
  Response, Percent: 104%

## C[N+](C)(C)CCCN1c2ccccc2Sc2ccc(Cl)cc21.[Br-] [ws-PT Plus (CP—Br^−), [3-(2-chlorophenothiazin-10-yl)-propyl]trimethyl-ammonium bromide]
Alkaline phosphatase
  Response, Percent: 85%

## O=S(=O)([O-])CCCCN1c2ccccc2Sc2ccc(Cl)cc21.[Na+] [ws-PT—N—C4S—C2—Cl, Sodium 4-(2-chlorophenothiazin-10-yl)butane-1-sulfonate]
Alkaline phosphatase
  Response, Percent: 218%
  enhancement of the observed phosphatase activity: significant enhancement

## CN1c2ccccc2Sc2ccccc21 [MPT, 10-methyl-10H-phenothiazine]
Alkaline phosphatase
  Response, Percent: 198%
  enhancement of the observed phosphatase activity: significant enhancement
[1]
  appearance of test solution: visible flocculation

## C[N+](C)(C)CCCN1c2ccccc2Sc2ccccc21.[Cl-] [ws-PT Plus (MPA^+Cl^−), Trimethyl-(3-phenothiazin-10-yl-propyl)ammonium chloride]
Alkaline phosphatase
  Response, Percent: 70%

## CNC.c1ccncc1 [DMAP, Dimethylamine pyridine]
Alkaline phosphatase
  Response, Percent: 99%

## O=S(=O)([O-])CCCN1c2ccccc2Sc2ccccc21.[Na+] [ws-PT, Sodium (3-phenothiazine-10-yl)-propane-1-sulfonate]
Alkaline phosphatase
  Response, Percent: 207%
  enhancement of the observed phosphatase activity: significant enhancement
[1]
  appearance of test solution: visible flocculation
